Experimental data as given in patent US20090275099A1 (priority 2004, published 2009).
Where two headings read alike, the source gives them in different places.

How the values were obtained:
[1] = molecular target: peripheral benzodiazepine receptor (“PBR”) (Homo sapiens, UniProt P30536); assay: binding to the peripheral benzodiazepine receptor
[2] = system: human skin in organ culture; assay: RA-induced epidermal hyperplasia in human skin organ culture; conditions: RA-exposed skin, Bz-423 5 μg/ml
Description: Replicate 2 mm full-thickness punch biopsies of sun-protected hip skin were obtained from young adult volunteers. The participation of human subjects in this project was approved by the University of Michigan Institutional Review Board, and all subjects provided written informed-consent prior to their inclusion in the study. Immediately upon biopsy, the tissue was immersed in culture medium consisting of Keratinocyte Basal Medium (KBM) (Cambrex Bioscience, Walkersville, Md.). KBM is a low-Ca^2+, serum-free modification of MCDB-153 medium optimized for high-density keratinocyte growth. It was supplemented with CaCl2 to bring the final Ca^2+ concentration to 1.4 mM. After transport to the laboratory on ice, the biopsies were incubated in a 24-well dish containing 250 μl of Ca^2+-supplemented KBM with or without additional treatments (e.g., RA and/or Bz-423). Cultures were incubated at 37° C. in an atmosphere of 95% air and 5% CO2. Other than to maintain the tissue in a minimal volume of medium, nothing further was done to ensure a strict air-liquid interface. Incubation was for 8 days, with change of medium and fresh treatments every second day. […] Average thickness values for untreated, retinoid exposed, and retinoid plus Bz-423-treated biopsies were determined. […]

F1F0-ATPase = F1F0-ATPase (Bos taurus, UniProt P13621+P32876); assay: off-rate measurements, recovery of ATP synthesis of SMPs after dilution; format: biochemical, bovine
Experimental: Inhibition of Na,K-ATPases with oligomycin is time-dependent and results from a slow rate of dissociation from the enzyme (0.05 s^−1) (see, e.g., Esmann, M. (1991) Biochim. Biophys. Acta 1064, 31-36; herein incorporated by reference in its entirety). Since time-dependent inhibition can have profound effects on the function of the F1F0-ATPase, the off-rate of Bz-423 and oligomycin during ATP synthesis was examined. […] Inhibited SMP suspensions were diluted into buffer and activity was measured over time. Enzymatic activity of the SMPs incubated with Bz-423 had recovered to 90% of control at 10 s, indicating rapid dissociation (see, FIG. 18). In contrast, the activity of the enzyme incubated with oligomycin was only 54% of the uninhibited activity at 10 s, and increased for several minutes after dilution (see, FIG. 18). The time-dependence of the recovery of activity fit to a single exponential yielding an apparent dissociation rate constant for Bz-423>0.3 s^−1. However, dissociation of oligomycin was complex and a portion of the inhibitor dissociated at least 10-fold slower, consistent with a tight-binding, slow-dissociating inhibitor (see, e.g., Morrison, J. F., and Walsh, C. T. (1988) Adv. Enzymol. Relat. Areas Mol. Biol. 61, 201-301; herein incorporated by reference in its entirety). Presumably, the constraints of a high-affinity inhibitor dissociating from the membrane embedded proton channel presented a significant barrier for dissociation resulting in a slow off-rate.
Off-rate measurements. Rate of inhibition of ATP synthesis was measured as described above with the following changes. A 20 μL aliquot of SMPs (1 mg mL^−1) in synthesis buffer (with 10 mM K2HPO4) was added to each well of a 96-well plate containing 2.5 μL of 100× drug (14 μM Bz-423 and 35 nM oligomycin, final) or DMSO vehicle control. The drug was diluted out by adding 200 μL of synthesis buffer to each well. Substratecoupling mixture (25 μL with 1 mM ADP) was added to each well at the indicated time point and the rate of NADP^+ reduction was monitored over time.

Ramos cells = assay: early O2− (ROS) response, 1 h; format: cell-based, human; conditions: Homo sapiens, Ramos, 1 h, read-out: ROS EC50 (μM), Ramos cells
Experimental: To detect O2^−, cells are incubated with DHE (10 μM) for 30 min at 37° C. and are analyzed by flow cytometry to measure ethidium fluorescence. Flow analysis of mitochondrial transmembrane potential (ψm) is conducted by labeling cells with DiOC6(3) (20 nM) for 15 min at 37 degrees C. A positive control for disruption of ψm is established using carbonyl cyanide m-chlorophenylhydrazone (CCCP, 50 μM). Caspase activation assays are performed with FAM-VAD-fluoromethylketone. Processing of the substrate is evaluated by flow cytometry.
Since an early mitochondrial superoxide (O2^−) mediates apoptosis induced by Bz-423, the O2^− response of cells 1 h following incubation with drug was examined, as well as cell death at 24 h, as previously described (see, e.g., Blatt, N. B., et al., 2002 J Clin Invest 110, 1123-1132; incorporated herein by reference in its entirety).

Chain of peripheral benzodiazepine receptor (“PBR”) (P30536 whole entry, species assumed): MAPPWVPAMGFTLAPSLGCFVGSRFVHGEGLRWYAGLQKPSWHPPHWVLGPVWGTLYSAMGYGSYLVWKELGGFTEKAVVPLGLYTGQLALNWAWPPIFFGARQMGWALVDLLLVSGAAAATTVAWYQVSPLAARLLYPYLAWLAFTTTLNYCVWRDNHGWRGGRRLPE

## CN1C(=O)C(Cc2ccc3ccccc3c2)N=C(c2ccc(O)cc2)c2cc(Cl)ccc21 (centres unmarked) [Bz-423]
[1]
  Kd: ~1 µM
[2]
  histologic finding at high concentration: necrosis was observed
F1F0-ATPase; 1.4 μM Bz-423, 3.5 nM oligomycin
  reduction of F1F0-ATPase activity at the concentration produced after dilution: 10%
F1F0-ATPase; 14 μM Bz-423 or 35 nM oligomycin, read-out: ATP synthesis activity relative to that in the absence of inhibitor
  activity at 14 µM: 27%
F1F0-ATPase; at 10 s after dilution
  enzymatic activity recovered after dilution, % of control: 90%
F1F0-ATPase; read-out: dissociation rate from the enzyme-substrate complex
  koff: ~0.2 s⁻¹
F1F0-ATPase; single exponential fit, read-out: apparent dissociation rate constant
  koff: > 0.3 s⁻¹
Ramos cells
  EC50: 7.3 µM
